Experiments:
Experiment in all cases: relative viability (nuclei count vs DMSO), 5 days (fraction); higher = more cells survive
SGI-1776 + Lapatinib = compound: CN1CCC(CNc2ccc3ncc(-c4cccc(OC(F)(F)F)c4)n3n2)CC1 [SGI-1776] + CS(=O)(=O)CCNCc1ccc(-c2ccc3ncnc(Nc4ccc(OCc5cccc(F)c5)c(Cl)c4)c3c2)o1 [Lapatinib] (partner 2 µM)
Outline: (§1)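 Lung cancer cell lines in 1536-well plates were dosed by pin tool the day after seeding, either with one drug alone or with a fixed anchor-drug dose plus five library-drug doses (not always all listed) in √10 steps. After 5 days, cells were fixed and their nuclei stained in one step (final 0.05% Triton X-100, 1% formaldehyde, 1 ug/ml Hoechst), then counted on 4× images. Relative viability is the nuclei count in treated wells divided by that in vehicle wells. Values are medians of duplicate plates.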

Entinostat + Dasatinib = compound: Nc1ccccc1NC(=O)c1ccc(CNC(=O)OCc2cccnc2)cc1 [Entinostat] + Cc1nc(Nc2ncc(C(=O)Nc3c(C)cccc3Cl)s2)cc(N2CCN(CCO)CC2)n1 [Dasatinib] (partner 0.075 µM)
Outline: as §1

SGI-1776 + Crizotinib = compound: CN1CCC(CNc2ccc3ncc(-c4cccc(OC(F)(F)F)c4)n3n2)CC1 [SGI-1776] + C[C@@H](Oc1cc(-c2cnn(C3CCNCC3)c2)cnc1N)c1c(Cl)ccc(F)c1Cl [Crizotinib] (partner 1 µM)
Outline: as §1

Cell Line	relative viability (SGI-1776 + Lapatinib; first compound 0.08 µM)	relative viability (SGI-1776 + Lapatinib; first compound 0.8 µM)	relative viability (SGI-1776 + Lapatinib; first compound 2.53 µM)	relative viability (SGI-1776 + Lapatinib; first compound 8 µM)	relative viability (Entinostat + Dasatinib; first compound 0.02 µM)	relative viability (Entinostat + Dasatinib; first compound 0.06325 µM)	relative viability (Entinostat + Dasatinib; first compound 0.2 µM)	relative viability (Entinostat + Dasatinib; first compound 0.6325 µM)	relative viability (Entinostat + Dasatinib; first compound 2 µM)	relative viability (SGI-1776 + Crizotinib; first compound 0.08 µM)	relative viability (SGI-1776 + Crizotinib; first compound 0.8 µM)	relative viability (SGI-1776 + Crizotinib; first compound 2.53 µM)	relative viability (SGI-1776 + Crizotinib; first compound 8 µM)
NCI-H2085	0.838	0.847	0.748	0.687	0.226	0.243	0.228	0.248	0.244	0.858	0.767	0.853	0.71
PC-14	0.337	0.31	0.261	0.209	0.236	0.261	0.217	0.118	0.0579	0.889	0.895	0.96	0.79
NCI-H1355	0.915	0.989	1.01	0.799	0.69	0.687	0.583	0.429	0.306	1.1	1.03	1.01	0.935
NCI-H1650	0.877	0.983	0.809	0.343	0.385	0.354	0.407	0.284	0.212	0.86	0.999	0.559	0.231
Calu-6	1.12	1.11	1.01	0.771						0.806	0.624	0.402	0.289
NCI-H1395	1.16	1.04	1.07	0.781	0.477	0.425	0.42	0.286	0.405				
EBC-1	0.207	0.214	0.182	0.138						0.21	0.175	0.186	0.123
NCI-H2342					0.305	0.319	0.291	0.274	0.278				
NCI-H1703	1.3	0.922	0.608	0.257						1.17	0.521	0.272	0.124
ChaGo-K-1					0.709	0.554	0.671	0.526	0.553	1.16	1.12	1.13	0.362
IA-LM	0.923	0.726		0.72						0.514	0.989		0.69
HCC-44	1.04	1.15	1.01	0.962						0.818	0.828	0.867	0.764
NCI-H522					0.882	1.14	1.16	1.23	0.795				
A549	0.965	0.993	0.958	0.652						0.789	0.843	0.553	0.138

From the supplement of paper PMC10307832
